The results in this text go back to patent US20080248008A1, “Inhibitors of Protein Kinase a Anchoring” (priority 2004, published 2008).

The test system of the test is human peripheral blood T cells. The experiment in a line: IL-2 production assay in T cells (ELISA). It counts as cell-based. The procedure: IL-2 production. T cells were cultured and activated by 10 or 50 μM Sp-8-Br-cAMPs (a cAMP agonist) for 15 minutes before the T cells were activated by anti-CD3/anti-CD28 beads (Dynal) for 20 hours. Cell free supernatants were harvested and stored at −80° C. until analsysed. The IL-2 levels were determined by Elisa (R & D Systems, Europe Ltd., UK):
IL-2 production Assay. Primary T cells were stimulated or not with anti-CD3/anti-CD28 coated beads (Dynal, cat. no. 111.31) for 20 hours, thereafter supernatants were harvested and the concentration of IL-2 was assessed by ELISA (R&D Systems, cat. no D2050). When used, 8-CPT-cAMP was added for 15 minutes before CD3/CD28 treatment.
To examine the effect of MEME3 on cytokine production, IL-2 levels in medium from human peripheral blood T cells treated with MEME3-Arg11 were measured by ELISA. First, cells were treated with MEME3-Arg11 for 12 hours, thereafter the PKA inhibitory pathway was activated by 10 or 50 μM Sp-8-Br-cAMPs (a cAMP agonist) for 15 minutes before the T cells were activated by CD3/CD28 stimulation (FIG. 21).

With “LEQYANQLADQIIKEATERRRRRRRRRrr [MEME3-Arg11]”, for the setting “10 μM, relative to untreated T cells”, the “increase in IL-2 production” value was 2.5 fold. In addition, under “12 hours peptide, Sp-8-Br-cAMPs, CD3/CD28 stimulation”, the IL-2 levels result is “increased in samples treated with MEME3-Arg11 in a concentration-dependent manner”.
